# Measured values published in patent US8435980B2 (AbbVie Inc., priority 2009, dated 2013).
# pKi: −log10 of the molar value.
# Biological target: T1, Cdc7 (BEV coexpressed huCDC7/DBF4) (Homo sapiens, UniProt O00311)
# T1 construct: made in house; host or cells: BEV (baculovirus expression vector) co-expression; insect cells are implied but no cell line is named
# Test: Cdc7 enzyme inhibition assay ([33P]ATP, biotinylated peptide substrate, FlashPlate)
# Type: biochemical
# Settings: Table 3; enzyme inhibition data (Ki)
# Experimental: Cdc7 (BEV coexpressed huCDC7/DBF4) is prepared internally. Cdc7 assays are conducted as follows with final concentrations as listed. […] Reactions are quenched after 1 hr by the addition of 90 μL stop buffer (50 mM EDTA, 2M NaCl). […] (Ki) for exemplary compounds.
# T1 sequence (O00311 whole entry): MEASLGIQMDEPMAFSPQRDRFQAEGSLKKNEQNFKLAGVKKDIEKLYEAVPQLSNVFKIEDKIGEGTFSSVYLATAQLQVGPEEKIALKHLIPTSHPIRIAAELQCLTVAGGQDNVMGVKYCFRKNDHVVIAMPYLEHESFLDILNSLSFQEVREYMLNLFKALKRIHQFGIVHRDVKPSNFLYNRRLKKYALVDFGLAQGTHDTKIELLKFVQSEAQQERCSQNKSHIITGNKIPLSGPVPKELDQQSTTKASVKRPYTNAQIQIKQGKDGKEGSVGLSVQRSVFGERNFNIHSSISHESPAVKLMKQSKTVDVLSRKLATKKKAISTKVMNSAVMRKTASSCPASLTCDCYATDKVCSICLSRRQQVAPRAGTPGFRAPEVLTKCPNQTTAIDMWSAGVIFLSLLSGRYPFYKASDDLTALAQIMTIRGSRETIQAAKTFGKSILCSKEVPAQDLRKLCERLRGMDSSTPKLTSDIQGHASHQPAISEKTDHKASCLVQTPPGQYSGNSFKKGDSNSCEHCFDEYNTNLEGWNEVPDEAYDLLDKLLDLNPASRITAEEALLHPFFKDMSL
# T1 sequence (Q9UBU7 whole entry partner): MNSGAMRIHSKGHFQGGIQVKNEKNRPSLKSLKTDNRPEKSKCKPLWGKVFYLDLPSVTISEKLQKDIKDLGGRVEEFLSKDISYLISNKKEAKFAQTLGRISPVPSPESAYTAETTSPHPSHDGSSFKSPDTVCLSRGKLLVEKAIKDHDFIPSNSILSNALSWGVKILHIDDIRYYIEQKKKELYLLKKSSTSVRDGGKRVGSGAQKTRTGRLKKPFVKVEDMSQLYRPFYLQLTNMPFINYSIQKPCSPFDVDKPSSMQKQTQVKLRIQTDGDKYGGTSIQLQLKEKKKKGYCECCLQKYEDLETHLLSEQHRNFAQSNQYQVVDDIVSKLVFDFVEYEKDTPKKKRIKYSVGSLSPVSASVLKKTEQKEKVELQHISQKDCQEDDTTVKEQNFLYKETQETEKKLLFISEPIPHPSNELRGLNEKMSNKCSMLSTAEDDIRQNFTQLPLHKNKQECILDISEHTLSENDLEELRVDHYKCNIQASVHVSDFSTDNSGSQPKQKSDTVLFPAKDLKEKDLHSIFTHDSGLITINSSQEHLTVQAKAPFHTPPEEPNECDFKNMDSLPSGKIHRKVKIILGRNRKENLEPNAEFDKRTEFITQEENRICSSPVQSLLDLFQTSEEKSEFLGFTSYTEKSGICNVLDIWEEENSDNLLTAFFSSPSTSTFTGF
row,pKi,Compound
1,> 8.00,"OCCCNc1cc(-c2c[nH]c3ncccc23)cc(Cl)n1 [Example 374, 3-{[6-chloro-4-(1H-pyrrolo[2,3-b]pyridin-3-yl)pyridin-2-yl]amino}propan-1-ol]"
2,7.00 to 8.00,"Clc1cc(-c2c[nH]c3ncccc23)cc(NCCCN2CCOCC2)n1 [Example 375, 6-chloro-N-[3-(morpholin-4-yl)propyl]-4-(1H-pyrrolo[2,3-b]pyridin-3-yl)pyridin-2-amine]"
3,> 8.00,"Clc1cc(-c2c[nH]c3ncccc23)cc(NCCCn2ccnc2)n1 [Example 376, 6-chloro-N-[3-(1H-imidazol-1-yl)propyl]-4-(1H-pyrrolo[2,3-b]pyridin-3-yl)pyridin-2-amine]"
4,> 8.00,"OCCCCCNc1cc(-c2c[nH]c3ncccc23)cc(Cl)n1 [Example 377, 5-{[6-chloro-4-(1H-pyrrolo[2,3-b]pyridin-3-yl)pyridin-2-yl]amino}pentan-1-ol]"
5,> 8.00,"Clc1cc(-c2c[nH]c3ncccc23)cc(NCCc2cccnc2)n1 [Example 378, 6-chloro-N-[2-(pyridin-3-yl)ethyl]-4-(1H-pyrrolo[2,3-b]pyridin-3-yl)pyridin-2-amine]"
6,> 8.00,"NC1CCC(N2CCC(Nc3cc(-c4c[nH]c5ncccc45)cc(Cl)n3)CC2)CC1 (stereo not shown) [Example 379, N-[1-(4-aminocyclohexyl)piperidin-4-yl]-6-chloro-4-(1H-pyrrolo[2,3-b]pyridin-3-yl)pyridin-2-amine]"
7,> 8.00,"CN1CCC(C2CCC(N(C)c3cc(-c4c[nH]c5ncccc45)cc(Cl)n3)CC2)C1 (stereo not shown) [Example 380, 6-chloro-N-methyl-N-[4-(1-methylpyrrolidin-3-yl)cyclohexyl]-4-(1H-pyrrolo[2,3-b]pyridin-3-yl)pyridin-2-amine]"
8,> 8.00,"O=C(N[C@H]1CC[C@H](Nc2cc(-c3c[nH]c4ncccc34)cc(Cl)n2)CC1)C1CN(Cc2ccccc2)C1 [Example 381, 1-benzyl-N-(trans-4-{[6-chloro-4-(1H-pyrrolo[2,3-b]pyridin-3-yl)pyridin-2-yl]amino}cyclohexyl)azetidine-3-carboxamide]"
9,> 8.00,"COc1cc(Cl)ccc1C(=O)N[C@H]1CC[C@H](Nc2cc(-c3c[nH]c4ncccc34)cc(Cl)n2)CC1 [Example 382, 4-chloro-N-(trans-4-{[6-chloro-4-(1H-pyrrolo[2,3-b]pyridin-3-yl)pyridin-2-yl]amino}cyclohexyl)-2-methoxybenzamide]"
10,> 8.00,"O=C(N[C@H]1CC[C@H](Nc2cc(-c3c[nH]c4ncccc34)cc(Cl)n2)CC1)c1cccc(C(F)(F)F)c1 [Example 383, N-(trans-4-{[6-chloro-4-(1H-pyrrolo[2,3-b]pyridin-3-yl)pyridin-2-yl]amino}cyclohexyl)-3-(trifluoromethyl)benzamide]"
11,7.00 to 8.00,"Clc1cnc2[nH]cc(-c3cc(Cl)nc(NC4CCCCC4)c3)c2c1 [Example 384, 6-chloro-4-(5-chloro-1H-pyrrolo[2,3-b]pyridin-3-yl)-N-cyclohexylpyridin-2-amine]"
12,> 8.00,"O=C(N[C@H]1CC[C@H](Nc2cc(-c3c[nH]c4ncccc34)cc(Cl)n2)CC1)c1cccc(Cl)c1 [Example 385, 3-chloro-N-(trans-4-{[6-chloro-4-(1H-pyrrolo[2,3-b]pyridin-3-yl)pyridin-2-yl]amino}cyclohexyl)benzamide]"
13,> 8.00,"Clc1cc(-c2c[nH]c3ncccc23)cc(NCCc2ccccn2)n1 [Example 387, 6-chloro-N-[2-(pyridin-2-yl)ethyl]-4-(1H-pyrrolo[2,3-b]pyridin-3-yl)pyridin-2-amine]"
14,> 8.00,"Clc1cc(-c2c[nH]c3ncccc23)cc(NCCc2ccccc2)n1 [Example 388, 6-chloro-N-(2-phenylethyl)-4-(1H-pyrrolo[2,3-b]pyridin-3-yl)pyridin-2-amine]"
15,7.00 to 8.00,"CN1CCN(CCCNc2cc(-c3c[nH]c4ncccc34)cc(Cl)n2)CC1 [Example 389, 6-chloro-N-[3-(4-methylpiperazin-1-yl)propyl]-4-(1H-pyrrolo[2,3-b]pyridin-3-yl)pyridin-2-amine]"

row,Compound,pKi
1,COc1ccc(CNc2cc(-c3c[nH]c4ncccc34)cc(Cl)n2)cc1OC [Example 386],7.00 to 8.00
